Source: US20240254129A1, “HETEROCYCLIC COMPOUNDS AND USES THEREOF” (Kumquat Biosciences Inc., priority 2021, published 2024)
Where two headings read alike, the source gives them in different places.

Key:
[1] = target: GST-tagged K-Ras mutant / His-tagged hSOS1 (Homo sapiens, UniProt P01116); experiment: HTRF assay, K-Ras mutant / SOS1 interaction; assay type: binding; conditions: read-out: IC50 against mutant Kras
Procedure, shortened: (§1)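 HTRF read-out of GST-tagged K-Ras (mutant or wildtype) binding His-hSOS1, via anti-GST-Eu donor and anti-6His-XL665 acceptor; buffer ~5 mM HEPES pH 7.4, ~150 mM NaCl, ~1 mM DTT, 0.05% BSA, 0.0025% Igepal. Read after ≥~10 min; duplicates, 10 μM to 0.01 μM; IC50 from 665/620 nm ratio.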

[2] = target: T1, wildtype Kras / hSOS1 (Homo sapiens, UniProt P01116); experiment: HTRF assay, wildtype Kras / SOS1 interaction; assay type: binding; conditions: read-out: IC50 against wildtype Kras
T1 construct: made in house; host or cells: E. coli BL21 (DE3)
Procedure, shortened: as §1

[3] = compound nos. 102-196, general methodology of example 5

Sequence of GST-tagged K-Ras mutant / His-tagged hSOS1 (P01116 whole entry G12D, form open): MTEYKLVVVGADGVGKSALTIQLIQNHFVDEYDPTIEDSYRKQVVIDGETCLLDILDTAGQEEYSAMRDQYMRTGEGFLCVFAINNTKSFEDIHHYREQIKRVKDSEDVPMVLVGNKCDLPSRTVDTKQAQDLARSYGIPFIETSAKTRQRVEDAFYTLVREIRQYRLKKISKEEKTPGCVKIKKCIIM
T1 sequence (P01116 1-188 isoform P01116-2): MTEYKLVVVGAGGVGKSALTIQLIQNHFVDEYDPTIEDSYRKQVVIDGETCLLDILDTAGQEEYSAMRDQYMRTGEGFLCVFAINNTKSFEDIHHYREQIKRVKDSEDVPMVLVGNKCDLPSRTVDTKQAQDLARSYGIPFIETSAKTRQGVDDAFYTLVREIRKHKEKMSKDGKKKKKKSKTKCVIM

Row | Compound | IC50 ([1]; compound nos. 401-703) [nM] | IC50 ([2]; compound nos. 401-703) [nM] | IC50 [1, 3] [nM] | IC50 [2, 3] [nM]
1 | Nc1nc2c(-c3c(Cl)cc4c(N5CCC6CNCC6C5)nc(OC[C@@]56CCCN5C[C@H](F)C6)nc4c3F)ccc(F)c2s1 (stereo partly drawn) [Compound 623, 4-(6-chloro-8-fluoro-2-(((2R,7aS)-2-fluorotetra-hydro-1H-pyrrolizin-7a(5H)-yl)methoxy)-4-(octahydro-5H-pyrrolo[3,4-c]pyridin-5-yl)quinazolin-7-yl)-7-fluoro-benzo[d]thiazol-2-amine] | < 500 | > 500 | – | –
2 | Fc1c(-c2cccc3c2C2CC2C3)c(Cl)cc2c(N3CC4CCC(C3)N4)nc(OC[C@@]34CCCN3C[C@H](F)C4)nc12 (stereo partly drawn) [Compound 422, 4-(3,8-diazabicyclo[3.2.1]-octan-3-yl)-6-chloro-8-fluoro-2-(((2R,7aS)-2-fluoro-tetrahydro-1H-pyrrolizin-7a(5H)-yl)methoxy)-7-(1,1a,6,6a-tetrahydrocyclo-propa[a]inden-2-yl)quin-azoline] | > 500 | < 500 | – | –
3 | Nc1nc2c(-c3c(Cl)cc4c(N5C[C@H]6CC[C@@H](C5)C6(F)F)nc(OC[C@@]56CCCN5C[C@H](F)C6)nc4c3F)ccc(F)c2s1 [Compound 655, 4-(6-chloro-4-((1R,5S)-8,8-difluoro-3-azabicyclo[3.2.1]-octan-3-yl)-8-fluoro-2-(((2R,7aS)-2-fluorotetra-hydro-1H-pyrrolizin-7a(5H)-yl)methoxy)quinazolin-7-yl)-7-fluorobenzo[d]thiazol-2-amine] | > 500 | > 500 | – | –
4 | CN1CCC[C@H]1COc1nc(N2CCNCC(F)(F)C2)c2cc(Cl)c(-c3cccc4cnc(N)nc34)c(F)c2n1 [Compound 602, 6-chloro-4-(6,6-difluoro-1,4-diazepan-1-yl)-8-fluoro-2-(((S)-1-methylpyrrolidin-2-yl)methoxy)-[7,8′-biquin-azolin]-2′-amine] | > 500 | > 500 | – | –
5 | Nc1nc2c(-c3c(Cl)cc4c(N5CCNCC(F)(F)C5)nc(OCC56CCCN5C(=O)CC6)nc4c3F)cccc2s1 (stereo not shown) [Compound 151, 7a-(((7-(2-aminobenzo[d]-thiazol-4-yl)-6-chloro-4-(6,6-difluoro-1,4-diazepan-1-yl)-8-fluoroquinazolin-2-yl)oxy)methyl)hexahydro-3H-pyrrolizin-3-one] | – | – | > 500 | > 500
6 | Nc1nc2c(-c3c(Cl)cc4c(N5CCNCC(F)(F)C5)nc(OCCCN5CCOCC5)nc4c3F)cccc2s1 [Compound 129, 4-(6-chloro-4-(6,6-difluoro-1,4-diazepan-1-yl)-8-fluoro-2-(3-morpholinopropoxy)-quinazolin-7-yl)benzo[d]-thiazol-2-amine] | – | – | > 500 | < 500
7 | CN1CCCC1CCn1nc(N2CC3CCC(C2)N3)c2ccc(-c3cc(O)cc4ccccc34)c(F)c2c1=O (stereo not shown) [Compound 529, 4-(3,8-diazabicyclo[3.2.1]-octan-3-yl)-8-fluoro-7-(3-hydroxynaphthalen-1-yl)-2-(2-(1-methylpyrrolidin-2-yl)ethyl)phthalazin-1(2H)-one] | > 500 | > 500 | – | –
8 | OC1Cc2ccccc2N(c2ccc3c(N4CCCCCC4)nc(OCC45CCCN4CCC5)nc3c2F)C1 (stereo not shown) [Compound 534, 1-(4-(azepan-1-yl)-8-fluoro-2-((tetrahydro-1H-pyrrol-izin-7a(5H)-yl)methoxy)-quinazolin-7-yl)-1,2,3,4-tetrahydroquinolin-3-ol] | > 500 | > 500 | – | –
9 | Fc1c(N2CCCc3ccccc32)ccc2c(N3CCCCCC3)nc(OCC34CCCN3CCC4)nc12 [Compound 580, 4-(azepan-1-yl)-7-(3,4-dihydroquinolin-1(2H)-yl)-8-fluoro-2-((tetrahydro-1H-pyrrolizin-7a(5H)-yl)meth-oxy)quinazoline] | > 500 | > 500 | – | –
10 | Nc1nc2c(-c3ccc4c(N5CC6CCC(C5)N6)nc(OC[C@@]56CCCN5C[C@H](F)C6)nc4c3F)ccc(F)c2s1 [Compound 612, 4-(4-(3,8-diazabicyclo-[3.2.1]octan-3-yl)-8-fluoro-2-(((2R,7aS)-2-fluorotetra-hydro-1H-pyrrolizin-7a(5H)-yl)methoxy)quinazolin-7-yl)-7-fluorobenzo[d]thiazol-2-amine] | > 500 | > 500 | – | –
11 | Nc1nc2c(-c3c(Cl)cc4c(N5CCNCC(O)C5)nc(OCC56CCCN5CCC6)nc4c3F)ccc(F)c2s1 (stereo not shown) [Compound 161, 1-(7-(2-amino-7-fluoro-benzo[d]thiazol-4-yl)-6-chloro-8-fluoro-2-((tetra-hydro-1H-pyrrolizin-7a(5H)-yl)methoxy)quinazolin-4-yl)-1,4-diazepan-6-ol] | – | – | < 500 | < 500
12 | Nc1nc2c(-c3c(Cl)cc4c(N5CCC6CCC(C5)N6)nc(OC[C@@]56CCCN5C[C@H](F)C6)nc4c3F)ccc(F)c2s1 (stereo partly drawn) [Compound 684, 4-(4-(3,9-diazabicyclo-[4.2.1]nonan-3-yl)-6-chloro-8-fluoro-2-(((2R,7aS)-2-fluorotetrahydro-1H-pyrrol-izin-7a(5H)-yl)methoxy)-quinazolin-7-yl)-7-fluoro-benzo[d]thiazol-2-amine] | < 500 | > 500 | – | –
13 | CN1CCC[C@H]1COc1nc(N2CCNC(=O)C(F)(F)C2)c2cc(Cl)c(-c3ccc(F)c4sc(N)nc34)c(F)c2n1 [Compound 112, 1-(7-(2-amino-7-fluoro-benzo[d]thiazol-4-yl)-6-chloro-8-fluoro-2-(((S)-1-methylpyrrolidin-2-yl)meth-oxy)quinazolin-4-yl)-6,6-difluoro-1,4-diazepan-5-one] | – | – | < 500 | < 500
14 | CN1CCC[C@H]1COc1nc(N2CCCCC(N)C2)c2cc(Cl)c(-c3cccc4sc(N)nc34)c(F)c2n1 (stereo partly drawn) [Compound 442, 4-(4-(3-aminoazepan-1-yl)-6-chloro-8-fluoro-2-(((S)-1-methylpyrrolidin-2-yl)-methoxy)quinazolin-7-yl)-benzo[d]thiazol-2-amine] | < 500 | < 500 | – | –
15 | Cc1ccc2[nH]nc(C#N)c2c1-c1ccc2c(N3CC4CCC(C3)N4)nc(OC[C@@]34CCCN3C[C@H](F)C4)nc2c1F [Compound 561, 4-(4-(3,8-diazabicyclo-[3.2.1]octan-3-yl)-8-fluoro-2-(((2R,7aS)-2-fluorotetra-hydro-1H-pyrrolizin-7a(5H)-yl)methoxy)quinazolin-7-yl)-5-methyl-1H-indazole-3-carbonitrile] | > 500 | > 500 | – | –
16 | CC(C)CN1[C@@H]2CC[C@H]1CN(c1nc(OCC34CCCN3CCC4)nc3c(F)c(-c4ccc(F)c5sc(N)nc45)c(Cl)cc13)C2 [Compound 617, 4-(6-chloro-8-fluoro-4-((1R,5S)-8-isobutyl-3,8-diazabicyclo[3.2.1]octan-3-yl)-2-((tetrahydro-1H-pyrrolizin-7a(5H)-yl)meth-oxy)quinazolin-7-yl)-7-fluorobenzo[d]thiazol-2-amine] | < 500 | > 500 | – | –
17 | Nc1nc2c(-c3c(Cl)cc4c(N5CC6CC5CCN6)nc(OC[C@@]56CCCN5C[C@H](F)C6)nc4c3F)ccc(F)c2s1 (stereo partly drawn) [Compound 686, 4-(4-(2,6-diazabicyclo-[3.2.1]octan-6-yl)-6-chloro-8-fluoro-2-(((2R,7aS)-2-fluorotetrahydro-1H-pyrrol-izin-7a(5H)-yl)methoxy)-quinazolin-7-yl)-7-fluoro-benzo[d]thiazol-2-amine] | < 500 | > 500 | – | –
18 | CN1CCC[C@H]1COc1nc(N2CCCC(NS(=O)(=O)C3CC3)CC2)c2cc(Cl)c(-c3cccc4sc(N)nc34)c(F)c2n1 (stereo partly drawn) [Compound 472, N-(1-(7-(2-aminobenzo[d]-thiazol-4-yl)-6-chloro-8-fluoro-2-(((S)-1-methylpyr-rolidin-2-yl)methoxy)quin-azolin-4-yl)azepan-4-yl)-cyclopropanesulfonamide] | < 500 | < 500 | – | –
19 | Nc1nc2c(-c3c(Cl)cc4c(N5CCOCC(F)(F)C5)nc(OCC56CCCN5CCC6)nc4c3F)cccc2s1 [Compound 114, 4-(6-chloro-4-(6,6-difluoro-1,4-oxazepan-4-yl)-8-fluoro-2-((tetrahydro-1H-pyrrolizin-7a(5H)-yl)methoxy)quin-azolin-7-yl)benzo[d]thiazol-2-amine] | – | – | < 500 | < 500
20 | Nc1nc2c(-c3c(Cl)cc4c(N5CCOCC(N)C5)nc(OCC56CCCN5CCC6)nc4c3F)ccc(F)c2s1 (stereo not shown) [Compound 165, 4-(7-(2-amino-7-fluoro-benzo[d]thiazol-4-yl)-6-chloro-8-fluoro-2-((tetra-hydro-1H-pyrrolizin-7a(5H)-yl)methoxy)quinazolin-4-yl)-1,4-oxazepan-6-amine] | – | – | < 500 | < 500
21 | Nc1nc2c(-c3c(Cl)cc4c(N5CCCCCC5)nc(OCC5(CN6CCCC6)CC5)nc4c3F)ccc(F)c2s1 [Compound 677, 4-(4-(azepan-1-yl)-6-chloro-8-fluoro-2-((1-(pyrrolidin-1-ylmethyl)cyclopropyl)meth-oxy)quinazolin-7-yl)-7-fluorobenzo[d]thiazol-2-amine] | < 500 | > 500 | – | –
22 | Cc1ccc2sc(N)nc2c1-c1c(Cl)cc2c(N3CC4CCC(C3)N4)nc(OCC34CCCN3CCC4)nc2c1F [Compound 468, 4-(4-(3,8-diazabicyclo-[3.2.1]octan-3-yl)-6-chloro-8-fluoro-2-((tetrahydro-1H-pyrrolizin-7a(5H)-yl)meth-oxy)quinazolin-7-yl)-5-methylbenzo[d]thiazol-2-amine] | < 500 | < 500 | – | –
23 | Cc1cc(N)nc(-c2c(Cl)cc3c(N4CCNCC(F)(F)C4)nc(OC[C@@H]4CCCN4C)nc3c2F)c1 [Compound 189, (S)-6-(6-chloro-4-(6,6-difluoro-1,4-diazepan-1-yl)-8-fluoro-2-((1-methyl-pyrrolidin-2-yl)methoxy)-quinazolin-7-yl)-4-methyl-pyridin-2-amine] | – | – | > 500 | > 500
